Measurements from patent publication US20090240048A1, “Alpha-crystalline form of substituted selenoxanthenes and the method of its preparation” (MEDBIOPHARM LTD, priority 2008, published 2009).

Assays:
[1] = Angle of repose (flowability) of powder; format: physicochemical
Storage life = format: physicochemical

c1ccc(C2C3=C(CCCC3)[Se]C3=C2CCCC3)cc1 [9-phenyl-symmetrical-octahydroselenoxanthene]
Angle of repose [1]: 52°
Storage life (Storage life): 6 months
